Assay [1] relates to E15 DIV3 mouse hippocampal neurons. Kind of assay: proNT-induced growth cone collapse in cultured hippocampal neurons (live imaging and immunofluorescence). Particulars: for growth cone collapse caused by the inhibitor alone: DIV3 hippocampal neurons, 5 μM EHT1864 30 min, 100 nM ITX3 45 min. Format: cell-based. Here is the method:
(§1) To assay which pathways are involved in filopodial collapse, 5-10 ng/ml proNGF, 10 ng/ml proBDNF, 25-50 ng/ml BDNF (Peprotech) or 25-100 ng/ml NGF (Harlan) was added to E15 primary hippocampal neurons for 20 min before fixation. In some cases, cells were pretreated with 100 nM K-252a (Calbiochem) for 20 min, 100 nM Gö6976 (Calbiochem) for 1 hour, 5 μM EHT1864 (Sigma) for 30 min or 100 nM ITX3 (ChemBridge Corporation, cat. no. 6007262) for 45 min. To block SorCS2, cells were incubated with 20 μg/ml anti-SorCS2 or control IgG for 20 min on ice before proNGF addition at 37° C.
(§2) DIV3 hippocampal neurons were fixed in 4% paraformaldehyde/20% sucrose for 10 min. The fixative was quenched with 50 mM NH4Cl in PBS for 5 min and cells were permeabilized with 0.1% TritonX-100 in PBS for 2 min. Alternatively, cells were fixed with ice-cold methanol for 5 min. Coverslips were blocked with 10% normal donkey serum, 2% bovine serum albumin and 0.25% fish skin gelatin in Tris-buffered saline for 30 min, incubated with primary antibodies diluted in blocking solution for 30 min, washed three times with Tris-buffered saline/0.25% fish skin gelatin, incubated with secondary antibodies mixed with Hoechst in blocking buffer for additional 30 min, washed and mounted using Mowio1488. Cells were imaged using a LSM510 laser-scanning confocal microscope equipped with a 40× Plan Neofluor NA1.3 DIC oil-immersion objective (Carl Zeiss Microimaging). Images were processed using LSM510 software (Zeiss) and ImageJ (NIH).
Cells were plated on gridded glass bottom dishes (MatTek Corporation) and imaged at DIV3 in phenol red-free Neurobasal medium (Invitrogen) supplemented with 30 mM HEPES-NaOH, pH7.4 using an Olympus IX71 inverted microscope driven by IPLab software (BD Biosciences) and equipped with a 60× PlanApoN objective (NA 1.42), a Hamamatsu EM-CCD camera and a heated stage maintained at 37° C., or driven by softWoRX software (version 3.7.1, DeltaVision), and equipped with a CoolSnap HQ2 camera (Photometrics) and an environmental chamber maintained at 37° C. Images were taken every 15 seconds. After live imaging cells were fixed, counterstained for p75, located by grid number and examined for p75 expression. All movies were exported and processed using IPLab (BD Biosciences), softWoRX (version 3.7.1, DeltaVision) and ImageJ (NIH) software. Filopodia length and speed were both analyzed using ImageJ (NIH) software. For this, two times ten consecutive frames, spaced 5-10 min apart, were analyzed before and again after treatment. In the length analysis, a line was drawn along an individual filopodium and measured at every time point, and the measurements were averaged before and after treatment. For the speed analysis, the filopodial tip was tracked using the ImageJ Manual Tracking plugin. Up to four individual filopodia were analyzed per movie, and a minimum of four movies taken from separate experiments were analyzed per condition.
Primary hippocampal and cortical neurons were isolated from E15 C57BL/6 mouse embryos as previously described (PEREIRA, D. B. et al., Journal of Neuroscience 27:4859-4869 (2007)). Briefly, neurons were dissociated by incubation with 0.05% trypsin at 37° C. for 8 min followed by trituration with fire-polished glass Pasteur pipettes. Cells were plated on poly-D-lysine coated dishes and grown in Neurobasal medium containing B27, 0.5 mM glutamine (all Invitrogen) and 10 μM 5-fluorodeoxyuridine. Hippocampal neurons were transfected at DIV2 using Lipofectamine2000 (Invitrogen). For coverslips in a 24-well plate, 0.5 μg plasmid were mixed with 0.5 μl Lipofectamine2000, and for glass bottom dishes, 1.5 μg plasmid were mixed with 1.5 μl Lipofectamine2000. The complexes were added to the cells for 30-45 min, and then neurons were placed back into preconditioned media until analysis the following day. […]

The test system is the same in assay [2]. In words: Pretreatment with antibodies or inhibitors before proNGF addition, growth cone / filopodial collapse. Particulars: for effect of pretreatment on proNGF-induced growth cone / filopodial collapse: pretreatment before proNGF for 20 min, 20 μg/ml antibody or control IgG 20 min, 100 nM Gö6976. Type of assay: cell-based. The procedure: as §1, §2
Primary hippocampal and cortical neurons were isolated from E15 C57BL/6 mouse embryos as previously described (PEREIRA, D. B. et al., Journal of Neuroscience 27:4859-4869 (2007)). Briefly, neurons were dissociated by incubation with 0.05% trypsin at 37° C. for 8 min followed by trituration with fire-polished glass Pasteur pipettes. Cells were plated on poly-D-lysine coated dishes and grown in Neurobasal medium containing B27, 0.5 mM glutamine (all Invitrogen) and 10 μM 5-fluorodeoxyuridine. Hippocampal neurons were transfected at DIV2 using Lipofectamine2000 (Invitrogen). For coverslips in a 24-well plate, 0.5 μg plasmid were mixed with 0.5 μl Lipofectamine2000, and for glass bottom dishes, 1.5 μg plasmid were mixed with 1.5 μl Lipofectamine2000. The complexes were added to the cells for 30-45 min, and then neurons were placed back into preconditioned media until analysis the following day. HT1080 cells were grown in DMEM/10% fetal bovine serum (both Invitrogen) and transfected using the AMAXA nucleofector (Lonza) according to manufacturer's instructions. 293FT cells were grown in DMEM/10% fetal bovine serum and transfected with Lipofectamine2000 according to manufacturer's instructions.

The subject of assay [3] is Rac. In words: Rac activity assay (GST-Pak-CRIB pull-down of activated Rac). Format: cell-based, mouse. Particulars: primary neuronal cultures. The procedure: Rac activity assays were performed as described previously (NEUBRAND, V. E. et al., Journal of Cell Science 123:2111-2123 (2010)). […] Cells were lysed in lysis buffer supplemented with 10 mM MgCl, lysates were cleared by centrifugation at 9000 g for 1 min, and cleared lysates were incubated with GST or GST-Pak-CRIB beads for 30 min at 4° C. Beads were washed and isolated active Rac was analyzed by Western blot. As a control, extra lysates were incubated with 0.1 mM GDP or 0.1 mM GTPγS for 30 min at room temperature before incubation with GST-Pak-CRIB beads. Western blots were analyzed by densitometry using ImageJ software, and isolated active Rac was normalized to the input.
GST and GST-Pak-CRIB proteins were expressed in E. coli BL21DE3 cells at 25° C. for 3 hours. Bacteria were disrupted by incubation with PBS supplemented with lysozyme on ice for 30 min and subsequent addition of 1 mM MgCl2, 0.1% TritonX-100 and 0.1 mg/ml DNAse for an additional 30 min. Bacterial lysates were cleared by centrifugation for 5 min at 3000 g and cleared lysates were incubated with glutathione sepharose. Beads were washed and the purity of the recombinant proteins was analyzed by Coomassie blue staining. 20 μg of sepharose coupled purified protein was used per reaction.

Take C3 transferase [reference compound]: in assay [1], the “growth cone collapse caused by the inhibitor alone” value is “neither induced growth cone collapse”. In addition, the “effect of pretreatment on proNGF-induced growth cone / filopodial collapse” value in assay [2] is listed as “nor did they interferen with proNGF-mediated growth cone collapse”.

For `O=c1cc(CN2CCOCC2)occ1OCCCCCSc1ccnc2cc(C(F)(F)F)ccc12` [EHT 1864, reference compound], the “growth cone collapse caused by the inhibitor alone” value in assay [1] is reported as “led to the collapse of growth cone structures”. The “Rac activity after inhibitor treatment” value in assay [3] is recorded as “striking decrease in Rac activity”.

On to `Cc1cc(/C=c2/sc3nc4ccccc4n3c2=O)c(C)n1-c1ccccc1` [ITX3, reference compound], for which the “growth cone collapse caused by the inhibitor alone” value in assay [1] was “led to the collapse of growth cone structures”. In assay [3], the “Rac activity after inhibitor treatment” value is on record as “striking decrease in Rac activity”. With `C[C@@H](N)[C@H]1CC[C@H](C(=O)Nc2ccncc2)CC1` [Y-27632, reference compound], the “growth cone collapse caused by the inhibitor alone” value in assay [1] is listed as “neither induced growth cone collapse”. For the same molecule, the “effect of pretreatment on proNGF-induced growth cone / filopodial collapse” value in assay [2] is listed as “nor did they interferen with proNGF-mediated growth cone collapse”. On to “20-28: small peptide inhibitor 20-28 (of PKC) (FARKGALRQ; UniProt P17252 20-28, looked up, fragment)”, for which, in assay [2], the “effect of pretreatment on proNGF-induced growth cone / filopodial collapse” value is given as “exposure to proNGF failed to induce collapse of actin-rich structures”. As for `Cn1c2ccccc2c2c3c(c4c5ccccc5n(CCC#N)c4c21)CNC3=O` [Gö6976], the “effect of the agent alone on neuronal / actin morphology” value in assay [2] (agent alone, without proNGF) is listed as “had no effect on actin morphology”. In addition, in assay [2], the “effect of pretreatment on proNGF-induced growth cone / filopodial collapse” value is on record as “exposure to proNGF failed to induce collapse of actin-rich structures”.

B1: NGF: mature nerve growth factor (Harlan) (protein, UniProt P01139 122-241, looked up)
Beta-nerve growth factor: SSTHPVFHMGEFSVCDSVSVWVGDKTTATDIKGKEVTVLAEVNINNSVFRQYFFETKCRASNPVESGCRGIDSKHWNSYCTTTHTFVKALTTDEKQAAWRFIRIDTACVCVLSRKATRRG
As to B1, the growth cone collapse result in assay [1] (p75NTR-positive cells, 20 min exposure, 10 ng/ml proNGF, 10 ng/ml proBDNF with K252a, 5 ng/ml NGF) was “nor did NGF lead to actin rearrangements”.

The values are drawn from patent US20130336988A1, “METHODS FOR TREATING EARLY STAGE OR MILD NEUROLOGICAL DISORDERS” (NEW YORK UNIVERSITY, priority 2010, published 2013).
